Reference: patent US7884074B2, “Compounds and methods for prevention and/or treatment of inflammation using the same” (Ikaria Development Subsidiary Two, LLC, priority 2008, dated 2011)

Tested on: RhoA
Assay: thrombin induced RhoA activation in HUVEC culture (active RhoA pull-down, Western blot)
Assay type: cell-based, human
Conditions: 5 U/ml thrombin alone, 5 min
Protocol: The biological effect of the compounds was established in a model using thrombin induced RhoA activation in human umbilical vein endothelial cell (HUVEC) culture.
HUVEC are grown to confluence under standard conditions. Before induction of Rho activity HUVEC were starved for 4 h by using IMDM (Gibco) without growth factor and serum supplements. After the starvation period, 5 U/ml Thrombin (Calbiochem) or 5 U thrombin plus 50 μg/ml of test compound was added to the starvation medium for 1, 5 and 10 min. Active RhoA was isolated using Rho Assay Reagent from Upstate according to manufactures instructions. Isolates were separated on a 15% polyacrylamide gel and blotted on Nitrocellulose-Membrane (Bio-Rad). RhoA was detected by using Anti-Rho (-A, -B, -C), clone55 from Upstate (1:500).

thrombin
Relative RhoA stimulation compared to unstimulated control: 5.6
